{
  "source": "patent EP3046573B1",
  "about": "“AMYLIN ANALOGUES” (Zealand Pharma A/S, priority 2013, dated 2015)",
  "format_in_all_cases": "in vivo",
  "key": {"Male Sprague Dawley rats": {"tested_on": "Male Sprague Dawley rats", "experiment": "Efficacy testing: food preference (FP) and development of obesity in rats fed on a high-fat diet (HFD)", "conditions": "rats self-selecting LFD/HFD, 30 nmol/kg sc, QW, 4 weeks", "protocol": "(§1) Whole-blood glucose levels were determined on tail-vein blood samples by the Biosen (EKF Diagnostic, Germany) enzyme-based electrode method. Blood samples were analyzed for glycated hemoglobin (HbA1c) using a Cobas c111 analyzer (Roche Diagnostics, Mannheim, Germany). Plasma insulin levels were measured using a Meso Scale Discovery (MSD) system (Rockville, MD, USA). Liver fat content was determined by magnetic resonance (MR) scanning using an Echo systems MR scanner. Fat depots were measured by weighing of excised fat.\nMale Sprague Dawley rats obtained from Taconic A/S, Denmark, were used in this study. The animals arrived at least 7 days before the study start to allow acclimatization to experimental conditions. From arrival and throughout the study, the rats were housed in groups of 2 (n = 2) in a light-, temperature- and humidity-controlled room (reversed 12/12 h light/dark cycle: lights turned off during day-time and on during night-time; temperature 20-22°C; relative humidity 50-80%) and maintained on a HFD (60% of total energy from fat, D12492, Research Diet Inc., New Brunswick, USA) for 2 weeks. Animals had access ad libitum to water (domestic quality tap water with citric acid added to pH ∼ 3.6) during the entire study. The rats were stratified according to body weight (primary) and % body weight gain from the beginning of feeding with HFD (secondary). Three days before the initiation of treatment the rats were allowed to self-select between a low-fat diet (LFD, standard chow, 11 % of total energy from fat, Atromin™ 1324, Brogaarden A/S, Gentofte, Denmark) and a high-fat diet, and they remained on the self-selected regimen for the duration of the study. Rats were treated for four weeks with Compound 18 [30 nmol/kg sc, once weekly (QW)] or vehicle.\nStatistical analyses were performed using GraphPad™ Prism version 5.\nThe efficacy of Compound 18 in relation to change in food preference and in relation to the development of obesity were investigated by measurement of food preference, body weight, food intake, water intake, blood glucose levels, plasma insulin levels, mass of liver fat and mass of fat depots."}, "[1]": {"tested_on": "male Zucker diabetic fatty (ZDF) rats", "experiment": "Efficacy testing: glycemic control in Zucker diabetic fatty rats", "protocol": "as §1\n84 male Zucker diabetic fatty (ZDF) rats (9-10 weeks of age) were used in this study. The animals were housed in groups of n = 2. Stratification of the animals was based on non-fasting blood glucose (primary), changes in non-fasting blood glucose measured from the arrival of the animals until one week before the initiation of the study (secondary) and body weight (tertiary). The animals were further divided into two \"teams\" with a pair-fed group (group 2) allocated to team 2. Animals from group 2 were pair-fed in order to compare between the contribution made by reduced food intake and by drug-induced effects on glycemic control. The amount of food eaten by the animals treated with Compound 82 (30 nmol/kg, team 1) each day was determined, and the same amount was given to a vehicle-treated pair-fed group of animals the following day.\nRats were treated for 4 weeks with Compound 82 (3, 30 and 100 nmol/kg, sc, every (ev.) 5th day), Compound 18 (30 nmol/kg sc, every 5th day), or the GLP-1 analogue liraglutide (40 nmol/kg sc, twice daily (bid)).\nThe effects of the compounds on glycemic control were investigated by measurement of non-fasting and fasting blood glucose levels and HbA1c levels.\nStatistical analyses were performed using GraphPad™ Prism version 5. The measured parameters were compared using one- way ANOVA followed by Dunnett's multiple comparison test. Comparison between the pair-fed vehicle-treated group and the Compound 82 (30 nmol/kg) group was done using Student's two-tailed and unpaired t-test. Differences were considered statistically significant at p < 0.05."}, "[2]": {"experiment": "Pharmacokinetics of test compounds in mice", "conditions": "female, NMRI, mouse, plasma; for half-life: 100 nmol/kg (Pramlintide 400 nmol/kg)", "protocol": "NMRI mice (supplier: Taconic; females with a body weight of approximately 25 g) were given either a single subcutaneous (sc) bolus or a single intravenous (iv) bolus of each peptide to be tested.\nFollowing sc administration of test peptide (Compound 176, 1 or 18) (100 nmol/kg), blood samples were drawn 0.5, 2, 4, 8, 18, 40 and 56 hours post-dosing by eye bleeding. Following iv administration of Compound 176, 1 or 18 (100 nmol/kg), blood samples were drawn 0.08, 0.17, 0.5, 2, 8, 18 and 30 hours post-dosing by eye bleeding. The dosing vehicle used for each test peptide was a mannitol-containing histidine buffer (pH 7.0).\nPramlintide (400 nmol/kg) was also administered as a single sc bolus or as a single iv bolus to mice. Following sc administration, blood samples were drawn 5, 15, 20, 30, 60, 120, 180 and 240 minutes post-dosing by sublingual bleeding. Following iv administration, blood samples were drawn 5, 10, 15, 30, 60, 120, 180, and 240 minutes post-dosing by sublingual bleeding. The dosing vehicle used for Pramlintide was a mannitol-containing acetate buffer (pH 4.0).\nBlood samples were taken from two mice at each time point, i.e. 14-16 mice were included for each compound. The mice were euthanized immediately after blood sampling by cervical dislocation. Plasma samples were analyzed after solid-phase extraction (SPE) by liquid chromatography mass spectrometry (LC-MS/MS). Mean plasma concentrations were used for calculation of the pharmacokinetic parameters using the non-compartmental approach in Phoenix WinNonlin 6.3.\nPlasma terminal elimination half-life (t½) was determined as In(2)/λz, where λz is the magnitude of the slope of the log linear regression of the log concentration versus time profile during the terminal phase.\nBioavailability was determined as AUCinf (sc) / AUCinf (iv) x 100, where AUCinf is the area under the plasma concentration - time curve extrapolated to infinity (AUCinf = AUClast + Clast/λz, where Clast is the last observed plasma concentration)."}},
  "note": "Like-named read-outs stand apart in the source and are kept apart here. Numbered stars: 1 amine (or outer) side, 2 acyl side, 3 side chain; on linkers, the order of the positions; unused ones are H or OH. Bridge positions count the residues as written; N and C are the ends. Square brackets hold non-standard residues; d marks the D form. Peptide text beside a SMILES is read from it. * marks the point of attachment. C20 diacid = O=C(O)CCCCCCCCCCCCCCCCCCC(=O)*; γGlu = O=C(O)[C@H](CCC(=O)[*:2])N[*:1]; NMeI = CC[C@H](C)[C@H](NC)C(=O)O; Sar = CNCC(=O)O",
  "data": [
    {"smiles": "CC[C@H](C)[C@@H](C(=O)N[C@@H](CC(C)C)C(=O)N[C@@H](CO)C(=O)N[C@@H](CO)C(=O)N[C@H](C(=O)N[C@@H](CC(N)=O)C(=O)N[C@H](C(=O)NCC(=O)N[C@@H](CO)C(=O)N[C@@H](CC(N)=O)C(=O)N[C@H](C(=O)N1CCC[C@H]1C(N)=O)[C@@H](C)O)C(C)C)[C@@H](C)O)N(C)C(=O)[C@H](C)NC(=O)CN(C)C(=O)[C@H](Cc1ccccc1)NC(=O)[C@H](CC(N)=O)NC(=O)[C@H](CC(N)=O)NC(=O)[C@H](CO)NC(=O)[C@H](CO)NC(=O)[C@H](CCCNC(=N)N)NC(=O)[C@H](Cc1c[nH]cn1)NC(=O)[C@H](CC(C)C)NC(=O)[C@H](Cc1ccccc1)NC(=O)[C@H](CCC(=O)O)NC(=O)[C@H](C)NC(=O)[C@H](CC(C)C)NC(=O)[C@H](CCCNC(=N)N)NC(=O)[C@H](CCC(N)=O)NC(=O)[C@@H](NC(=O)[C@H](C)NC(=O)[C@@H]1CSSC[C@H](NC(=O)[C@H](CCCNC(=N)N)NC(=O)CC[C@H](NC(=O)CCCCCCCCCCCCCCCCCCC(=O)O)C(=O)O)C(=O)N[C@@H](CC(N)=O)C(=O)N[C@@H]([C@@H](C)O)C(=O)N[C@@H](C)C(=O)N[C@@H]([C@@H](C)O)C(=O)N1)[C@@H](C)O", "note": "[Compound 18, [19CD]-isoGlu-RC()NTATC()ATQRLAEFLHRSSNNF-Gly(Me)-A-Ile(Me)-LSSTNVGSNTP-NH2] ({C20 diacid-γGlu}-RCNTATCATQRLAEFLHRSSNNF[Sar]A[NMeI]LSSTNVGSNTP-NH2; disulfide 2-7)", "values": [
      {"measurement": "body weight gain", "setting": "Male Sprague Dawley rats", "result": "reduction"},
      {"measurement": "caloric intake deriving from LFD", "setting": "Male Sprague Dawley rats", "result": "significant increase"},
      {"measurement": "terminal blood glucose levels", "setting": "Male Sprague Dawley rats", "result": "unaffected"},
      {"measurement": "total caloric intake combined from both diets", "setting": "Male Sprague Dawley rats", "result": "decrease"},
      {"measurement": "terminal HbA1c levels", "setting": "[1]; 30 nmol/kg sc every 5th day, 4 weeks, vehicle 8.7 ± 0.2", "result": "5.4 ± 0.1", "unit": "%"},
      {"measurement": "non-fasting blood glucose levels on day 13 and on day 27", "setting": "[1]; compared to the vehicle treated rats, P < 0.001", "result": "significantly lower"},
      {"measurement": "fasting blood glucose levels", "setting": "[1]; terminal, Compound 82 3, 30, and 100 nmol/kg, Compound 18 30 nmol/kg, P < 0.001 vs. vehicle", "result": "significantly decreased"},
      {"measurement": "bioavailability", "setting": "[2]; AUCinf (sc) / AUCinf (iv) x 100, 100 nmol/kg (Pramlintide 400 nmol/kg)", "result": 79, "unit": "%"},
      {"measurement": "half-life", "setting": "[2]; single iv bolus, read-out: t½ (hours) iv (converted)", "result": 20.8, "unit": "h"},
      {"measurement": "half-life", "setting": "[2]; single sc bolus, read-out: t½ (hours) sc (converted)", "result": 22.8, "unit": "h"}
    ]}
  ]
}
